Measurements reported in patent US20030187240A1, “2' -modified oligonucleotides” (ISIS Pharmaceuticals, Inc., priority 1990, published 2003).
Entries after “also recorded” stand apart in the source; their conditions may differ. Strand notation (5' to 3'): a small letter for the sugar, then the base; units joined by * are phosphorothioate-linked, units joined directly phosphodiester-linked; [ ] holds rarer units or linkages, { } end groups; capitals alone tell only the bases. d = 2'-deoxy (DNA); m = 2'-O-methyl

Assays:
[1] = test system: codon-12 point mutation of mutant (activated) H-ras RNA; format: cell-based, human
PKC-α mRNA = PKC-α mRNA levels by Northern blot analysis; format: cell-based, human; conditions: FIGS. 3, 4 and 5; result in words
Description: Oligonucleotides having SEQ ID NO: 4 were synthesized as uniformly phosphorothioate chimeric oligonucleotides having a centered deoxy gap of varying lengths flanked by 2′-O-methylated regions. These oligonucleotides (500 nM concentration) were tested for effects on PKC-α mRNA levels by Northern blot analysis.

[2] = test system: complementary RNA strand (the sense strand); experiment: Thermal melting analysis of 2′-deoxy-2′-fluoro modified oligonucleotides (Table 1); format: binding
ras mRNA = experiment: Northern blot analysis of ras expression in T24 cells; format: cell-based, human; set-up: inhibition of ras expression / decrease of ras mRNA: concentration or dose not given beside the values
Description: The human urinary bladder cancer cell line T24 was obtained from the American Type Culture Collection (Rockville Md.). Cells were grown in McCoy's 5A medium with L-glutamine (GIBCO-BRL, Gaithersburg, Md.), supplemented with 10% heat-inactivated fetal calf serum and 50 U/ml each of penicillin and streptomycin. Cells were seeded on 100 mm plates. When they reached 70% confluency, they were treated with oligonucleotide. Plates were washed with 10 ml prewarmed PBS and 5 ml of OptiMEM (GIBCO) reduced-serum medium containing 2.5 μl DOTMA. Oligonucleotide was then added to the desired concentration. After 4 hours of treatment, the medium was replaced with McCoy's medium. Cells were harvested 48 hours after oligonucleotide treatment and RNA was isolated using a standard CsCl purification method. [Kingston in Current Protocols in Molecular Biology, F. M. Ausubel, R. Brent, R. E. Kingston, D. D. Moore, J. A. Smith, J. G. Seidman and K. Strahl, Eds., John Wiley and Sons, New York.] The human epithelioid carcinoma cell line HeLa 229 was obtained from the American Type Culture Collection (Bethesda, Md.). HeLa cells were maintained as monolayers on 6-well plates in Dulbecco's Modified Eagle's medium (DMEM) supplemented with 10 fetal bovine serum and 100 U/ml penicillin. Treatment with oligonucleotide and isolation of RNA were essentially as described above for T24 cells.
Northern hybridization: 10 μg of each RNA was electrophoresed on a 1.2% agarose/formaldehyde gel and transferred overnight to GeneBind 45 nylon membrane (Pharmacia LKB, Piscataway, N.J.) using standard methods. [Kingston in Current Protocols in Molecular Biology, F. M. Ausubel, R. Brent, R. E. Kingston, D. D. Moore, J. A. Smith, J. G. Seidman and K. Strahl, Eds., John Wiley and Sons, New York.] RNA was UV-crosslinked to the membrane. Double-stranded ^32P-labeled probes were synthesized using the Prime a Gene labeling kit (Promega, Madison Wis.). The ras probe was a SalI-NheI fragment of a cDNA clone of the activated (mutant) H-ras mRNA having a GGC-to-GTC mutation at codon-12. The control probe was G3PDH. Blots were prehybridized for 15 minutes at 68° C. with the QuickHyb hybridization solution (Stratagene, La Jolla, Calif.). The heat-denatured radioactive probe (2.5×10^6 counts/2 ml hybridization solution) mixed with 100 μl of 10 mg/ml salmon sperm DNA was added and the membrane was hybridized for 1 hour at 68° C. The blots were washed twice for 15 minutes at room temperature in 2×SSC/0.1% SDS and once for 30 minutes at 60° C. with 0.1×SSC/0.1%SDS. Blots were autoradiographed and the intensity of signal was quantitated using an ImageQuant PhosphorImager (Molecular Dynamics, Sunnyvale, Calif.). Northern blots were first hybridized with the ras probe, then stripped by boiling for 15 minutes in 0.1×SSC/0.1%SDS and rehybridized with the control G3PDH probe to check for correct sample loading.

3979 (CCACACCGACGGCGCCC; chimeric 2'-O-methyl phosphorothioate, pattern not given here) [Oligonucleotide 3979]
activity at the highest concentration dose [1]: measurable activity
inhibition of ras-luciferase activity [1]: neither of the oligonucleotides having either the one or the three 2′-deoxy-erythro-pentofuranosyl nucleotide subsequences showed significant activity

7273 (AAAACGTCAGCCATGGTCCC; 2'-O-propyl/deoxy, mixed P=S/P=O backbone, chemistry not fully specified) [Oligonucleotide 7273]
effect on PKC-α mRNA levels (PKC-α mRNA): more active than their 2′-O-methyl counterparts at lowering PKC-α mRNA levels

ps(CGA CUA UGC AAG UAC)
G°37 ([2]; G°37, antisense strand duplexed with RNA sense strand): -15.90 ± 0.34 kcal/mol
Tm (° C.)/subst. ([2]; delta Tm per 2′-fluoro substitution): +2.5 °C
Tm (° C.) ([2]; difference (delta Tm) to the unmodified strand): +27.0 °C
G°37 ([2]; difference to the unmodified strand): -8.32 ± 0.34 kcal/mol
Tm (° C.) ([2]; first Tm column, duplex with RNA sense strand): 60.9 °C

CTTATATTCCGTCATCGCTC [Oligonucleotide 2502]
inhibition of ras expression / decrease of ras mRNA (ras mRNA): 26%

5352 (AAAACGTCAGCCATGGTCCC; sugars from the 5' end m6 d6 m8, all phosphorothioate, methylation of C and T or U not given here) [Oligonucleotide 5352]
effect on PKC-α mRNA levels (PKC-α mRNA): show reduction of PKC-α mRNA; also recorded: most active

7082 (dT*dC*dT*dC*dG*dC*dT*dG*dG*dT*dG*dA*dG*dT*dT*dT*dC; antisense) [Oligonucleotide 7082]
effect on PKC-α mRNA levels (PKC-α mRNA): most active in reducing PKC-α mRNA levels

3984 (CCACACCGACGGCGCCC; chimeric 2'-O-methyl phosphorothioate, pattern not given here) [Oligonucleotide 3984]
inhibition of ras expression / decrease of ras mRNA (ras mRNA): 81%
inhibition of ras-luciferase activity [1]: greater inhibition of ras-luciferase activity than did oligonucleotide 2570

oligonucleotide with the 2′-O-propyl diester flanking regions: SEQ ID NO: 1, phosphorothioate in the 7-base deoxy gap only, phosphodiester 2′-O-propyl flanking regions (DNA CCACACCGACGGCGCCC; 2'-O-propyl flanks, phosphorothioate gap, chemistry not fully specified)
effect on ras expression (ras-luciferase reporter system), chimeric backbone-modified oligonucleotides [1]: able to inhibit ras expression

4998 (CTTATATTCCGTCATCGCTC; sugars from the 5' end m6 d7 m7, all phosphorothioate, methylation of C and T or U not given here) [Oligonucleotide 4998]
inhibition of ras expression / decrease of ras mRNA (ras mRNA): 84%
